This is an account of results in US7482379B2, “Propenoyl hydrazides” (priority 2004, dated 2009).

The target of one assay is T1, Caspase-3 (Homo sapiens, UniProt P42574).
T1 sequence (P42574 29-175 limits assumed): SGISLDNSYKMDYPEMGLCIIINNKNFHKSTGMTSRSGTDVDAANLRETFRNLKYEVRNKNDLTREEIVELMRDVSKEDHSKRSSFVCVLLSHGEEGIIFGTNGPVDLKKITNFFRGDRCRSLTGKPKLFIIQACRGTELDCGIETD
T1 sequence (P42574 176-277 limits assumed): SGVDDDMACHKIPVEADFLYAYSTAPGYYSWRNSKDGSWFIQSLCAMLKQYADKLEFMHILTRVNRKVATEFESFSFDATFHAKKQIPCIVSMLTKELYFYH
In words: Caspase-3 progress curve inhibition assay. The following applies: second-order rate constant; Ac-DEVD-AMC substrate; Pipes buffer pH 7.2.

The next assay deals with T2, Caspase-9 (Homo sapiens, UniProt P55211).
T2 sequence (P55211 1-315 limits assumed): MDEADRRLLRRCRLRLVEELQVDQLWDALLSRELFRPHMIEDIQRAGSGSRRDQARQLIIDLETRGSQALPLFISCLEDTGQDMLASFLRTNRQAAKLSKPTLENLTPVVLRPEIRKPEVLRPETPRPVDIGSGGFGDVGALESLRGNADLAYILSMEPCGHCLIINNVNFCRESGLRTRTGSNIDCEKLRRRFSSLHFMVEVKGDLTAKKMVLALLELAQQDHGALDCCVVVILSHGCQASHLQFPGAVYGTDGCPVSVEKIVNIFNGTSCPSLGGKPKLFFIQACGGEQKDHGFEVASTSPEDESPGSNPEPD
T2 sequence (P55211 331-416 limits assumed): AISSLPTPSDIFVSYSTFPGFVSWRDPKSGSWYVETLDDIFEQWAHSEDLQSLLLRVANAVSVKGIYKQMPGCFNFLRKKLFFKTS
Briefly: Caspase-9 progress curve inhibition assay. The following applies: second-order rate constant; Ac-LEHD-AFC substrate; Hepes buffer pH 7.0 with 0.7 M sodium citrate.

In another assay the target is T3, Caspase-6 (Homo sapiens, UniProt P55212).
T3 sequence (P55212 24-179 limits assumed): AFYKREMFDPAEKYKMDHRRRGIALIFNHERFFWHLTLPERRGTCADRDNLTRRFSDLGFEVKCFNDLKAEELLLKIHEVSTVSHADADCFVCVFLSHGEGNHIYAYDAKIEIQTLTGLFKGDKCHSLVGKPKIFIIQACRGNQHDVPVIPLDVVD
T3 sequence (P55212 194-293 limits assumed): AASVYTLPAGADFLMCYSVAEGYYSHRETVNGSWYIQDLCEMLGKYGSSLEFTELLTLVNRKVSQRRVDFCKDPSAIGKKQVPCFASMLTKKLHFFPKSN
Briefly: Caspase-6 progress curve inhibition assay. The following applies: second-order rate constant; Ac-DEVD-AMC substrate; Pipes buffer pH 7.2.

The next assay deals with T4, Caspase-10 (Homo sapiens, UniProt Q92851).
T4 sequence (Q92851 220-415 limits assumed): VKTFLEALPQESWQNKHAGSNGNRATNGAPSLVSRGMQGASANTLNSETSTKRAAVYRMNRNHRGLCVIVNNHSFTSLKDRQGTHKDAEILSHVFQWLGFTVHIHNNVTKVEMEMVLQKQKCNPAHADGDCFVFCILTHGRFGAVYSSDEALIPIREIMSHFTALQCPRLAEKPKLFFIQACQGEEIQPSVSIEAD
T4 sequence (Q92851 416-521 limits assumed): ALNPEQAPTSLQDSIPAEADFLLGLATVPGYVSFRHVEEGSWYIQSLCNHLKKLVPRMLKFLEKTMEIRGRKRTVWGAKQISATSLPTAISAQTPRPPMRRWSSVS
Briefly: Caspase-10 progress curve inhibition assay. The following applies: second-order rate constant; Ac-DEVD-AMC substrate; Hepes/PEG buffer pH 7.0.

The target in another assay is T5, Caspase-2 (Homo sapiens, UniProt P42575).
T5 sequence (P42575 170-333 limits assumed): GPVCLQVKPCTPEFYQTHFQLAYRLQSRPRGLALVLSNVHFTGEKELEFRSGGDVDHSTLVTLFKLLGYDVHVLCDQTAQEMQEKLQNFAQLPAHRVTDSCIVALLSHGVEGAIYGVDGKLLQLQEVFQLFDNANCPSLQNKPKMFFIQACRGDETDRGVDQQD
T5 sequence (P42575 348-452 limits assumed): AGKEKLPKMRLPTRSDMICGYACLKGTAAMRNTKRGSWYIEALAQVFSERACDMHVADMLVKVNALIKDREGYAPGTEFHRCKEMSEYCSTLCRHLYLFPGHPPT
Briefly: Caspase-2 progress curve inhibition assay. Particulars: second-order rate constant; Cbz-VDVAD-AFC substrate; Pipes buffer pH 7.2.

In another assay the target is T6, Caspase-7 (Homo sapiens, UniProt P55210).
T6 sequence (P55210 24-198 limits assumed): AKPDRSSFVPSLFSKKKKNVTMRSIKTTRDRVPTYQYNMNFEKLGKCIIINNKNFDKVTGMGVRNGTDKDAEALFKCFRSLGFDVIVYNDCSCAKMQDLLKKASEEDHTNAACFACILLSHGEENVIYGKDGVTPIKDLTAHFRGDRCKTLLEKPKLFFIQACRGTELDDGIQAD
T6 sequence (P55210 207-303 limits assumed): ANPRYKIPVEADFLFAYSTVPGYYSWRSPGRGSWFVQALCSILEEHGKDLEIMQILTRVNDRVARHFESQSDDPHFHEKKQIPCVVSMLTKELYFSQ
Briefly: Caspase-7 progress curve inhibition assay. Particulars: second-order rate constant; Ac-DEVD-AMC substrate; Pipes buffer pH 7.2.

Another assay addresses Caspase-8 (Homo sapiens, UniProt Q14790). In words: Caspase-8 progress curve inhibition assay. Particulars: second-order rate constant; Ac-DEVD-AMC substrate; Pipes buffer pH 7.2.

Sequence of Caspase-8 (Q14790 217-374 limits assumed): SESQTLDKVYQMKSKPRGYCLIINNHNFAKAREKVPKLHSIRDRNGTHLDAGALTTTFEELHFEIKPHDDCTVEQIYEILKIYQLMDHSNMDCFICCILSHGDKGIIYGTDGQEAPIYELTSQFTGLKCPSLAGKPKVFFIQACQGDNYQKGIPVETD
Sequence of Caspase-8 (Q14790 385-479 limits assumed): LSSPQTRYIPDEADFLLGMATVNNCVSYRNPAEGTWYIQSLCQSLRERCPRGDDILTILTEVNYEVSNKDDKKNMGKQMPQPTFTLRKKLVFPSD
Method for Caspase-10: Caspase-2, -3, -6, -7, -8, -9 and -10. Caspases-2, -3, -6, -7, -8, -9 and -10 were expressed in E. coli and purified in Guy Salvesen's laboratory at the Burnham Institute, La Jolla, Calif., according to the methods known in the art. Inhibition rates were determined by the progress curve method known in the art. This method is suitable for measuring irreversible inhibition rates with fast inhibitors, where the inhibitor, the substrate and the enzyme are incubated together and the rate of substrate hydrolysis is measured continuously. The rate of substrate hydrolysis in the presence of the inhibitor was monitored for 20 minutes. The progress curve of inhibition, where the product formation approaches an asymptote is described in the equation ln([P∞]−[P])=ln[P∞]−A[I]t where [P] and [P∞] are the product concentrations at t and t=∞ respectively, A is the apparent rate constant in the presence of the substrate. The apparent rate constants were determined from the slopes of plots of ln ([P∞]−[P]) versus time (t) in seconds as previously described, where A=slope/[I].
(§1) For competitive and irreversible inhibition, the apparent rate constant is converted to the second order rate constant k2 by taking into consideration the effect of the substrate concentration on the apparent rate constant. The second order rate constant is described as in the equation: k2=A*(1+[S]/KM)
Assay buffer is a 1:1 mixture of buffer (200 mM Hepes, 0.2% (w/v) CHAPS, PEG 20% (w/v)) and 20 mM DTT solution in H2O at pH 7.0). The enzyme was pre-activated for 10 min at 25° C. in the assay buffer.
Method for Caspase-2: Inhibition rates were determined by the progress curve method known in the art. This method is suitable for measuring irreversible inhibition rates with fast inhibitors, where the inhibitor, the substrate and the enzyme are incubated together and the rate of substrate hydrolysis is measured continuously. The rate of substrate hydrolysis in the presence of the inhibitor was monitored for 20 minutes. The progress curve of inhibition, where the product formation approaches an asymptote is described in the equation ln([P∞]−[P])=ln[P∞]−A[I]t where [P] and [P∞] are the product concentrations at t and t=∞ respectively, A is the apparent rate constant in the presence of the substrate. The apparent rate constants were determined from the slopes of plots of ln ([P∞]−[P]) versus time (t) in seconds as previously described, where A=slope/[I].
as §1
(§2) The concentration of the caspase-3 stock solution was 2 nM in the assay buffer. Assay buffer is a 1:1 mixture of caspase buffer (40 mM Pipes, 200 mM NaCl, 0.2% (w/v) CHAPS, sucrose 20% (w/v)) and 20 mM DTT solution in H2O at pH 7.2. The concentration of the substrate stock solution was 2 mM in DMSO. The enzyme was pre-activated for 10 min at 37° C. in the assay buffer. […] 50 μL of 2 nM enzyme stock solution (final concentration: 1 nM) was added to the mixture after 1 min and reading started immediately for 20 min at 37° C. Inhibition experiments were repeated in duplicate and standard deviations determined.
The inhibitor stock solution concentrations varied from 5×10^−3 M to 1×10^−4 M in DMSO.
Method for Caspase-3: Caspase-2, -3, -6, -7, -8, -9 and -10. […] Inhibition rates were determined by the progress curve method known in the art. This method is suitable for measuring irreversible inhibition rates with fast inhibitors, where the inhibitor, the substrate and the enzyme are incubated together and the rate of substrate hydrolysis is measured continuously. The rate of substrate hydrolysis in the presence of the inhibitor was monitored for 20 minutes. The progress curve of inhibition, where the product formation approaches an asymptote is described in the equation ln([P∞]−[P])=ln[P∞]−A[I]t where [P] and [P∞] are the product concentrations at t and t=∞ respectively, A is the apparent rate constant in the presence of the substrate. The apparent rate constants were determined from the slopes of plots of ln ([P∞]−[P]) versus time (t) in seconds as previously described, where A=slope/[I].
as §1, §2

For the compound `CC(C)[C@H](NC(=O)[C@H](CCC(=O)O)NC(=O)[C@H](CC(=O)O)NC(=O)OCc1ccccc1)C(=O)NN(CC(=O)O)C(=O)/C=C/C(=O)NCCc1ccccc1` (relative stereo) [Cbz-Asp-Glu-Val-AAsp-CH═CH—CONHCH2CH2Ph, N^2—(N-Benzyloxycarbonylaspartylglutamylvalyl)-N^1-carboxymethyl-N^1-trans-(3-phenethylcarbamoylpropenoyl)hydrazine], at Caspase-3, the “k2 Caspase-3” value is 1,950,000 M^−1s^−1. The “k2 Caspase-9” value on Caspase-9 came out at 655 M⁻¹ s⁻¹. In addition, the “k2 Caspase-6” value on Caspase-6 was 3,470 M^−1s^−1. In addition, the “k2 Caspase-10” value on Caspase-10 is on record as 31,400 M^−1s^−1. Besides, the “k2 Caspase-2” value on Caspase-2 worked out at 120 M⁻¹ s⁻¹. Moreover, at Caspase-7, the “k2 Caspase-7” value was 267,000 M^−1s^−1. Moreover, the “k2 Caspase-8” value at Caspase-8 is reported as 129,000 M^−1s^−1.
On to `CC(C)[C@H](NC(=O)[C@H](CCC(=O)O)NC(=O)[C@H](CC(=O)O)NC(=O)OCc1ccccc1)C(=O)NN(CC(=O)O)C(=O)/C=C/C(=O)NCc1ccccc1` (relative stereo) [Cbz-Asp-Glu-Val-AAsp-CH═CH—CONHCH2Ph, N^1-trans-(3-Benzylcarbamoylpropenoyl)-N^2—(N-benzyloxycarbonylaspartylglutamylvalyl)-N^1-carboxymethylhydrazine], for which, at Caspase-3, the “k2 Caspase-3” value is given as 1,750,000 M^−1s^−1. Further, the “k2 Caspase-9” value at Caspase-9 is listed as 2,010 M^−1s^−1. Further, the “k2 Caspase-6” value at Caspase-6 is given as 3,210 M^−1s^−1. In addition, at Caspase-10, the “k2 Caspase-10” value is 19,400 M^−1s^−1. In addition, the “k2 Caspase-2” value on Caspase-2 amounted to 130 M⁻¹ s⁻¹. In addition, the “k2 Caspase-7” value on Caspase-7 is reported as 249,000 M^−1s^−1. Also, on Caspase-8, the “k2 Caspase-8” value is reported as 78,235 M^−1s^−1.
Consider `CC[C@H](C)[C@H](NC(=O)OCc1ccccc1)C(=O)N[C@@H](CCC(=O)O)C(=O)N[C@H](C(=O)NN(CC(=O)O)C(=O)/C=C/C(=O)N(Cc1ccccc1)Cc1ccccc1)[C@@H](C)O` (relative stereo) [Cbz-Ile-Glu-Thr-AAsp-CH═CH—CON(CH2Ph)2, N^2—(N-Benzyloxycarbonylisoleucylglutamylthreonyl)-N^1-carboxylmethyl-N^1-trans-(3-dibenzylcarbamoylpropenoyl)hydrazine], for which the “k2 Caspase-3” value at Caspase-3 is 9,570 M^−1s^−1. Moreover, the “k2 Caspase-9” value at Caspase-9 is recorded as 1,930 M^−1s^−1. Also, the “k2 Caspase-6” value on Caspase-6 is given as 83,900 M^−1s^−1. Moreover, the “k2 Caspase-10” value at Caspase-10 is 7,930 M^−1s^−1. In addition, the “k2 Caspase-2” value on Caspase-2 is 76 M⁻¹ s⁻¹. Further, the “k2 Caspase-7” value at Caspase-7 is 1,140 M^−1s^−1. The “k2 Caspase-8” value on Caspase-8 was 39,500 M^−1s^−1.
As for `CC[C@H](C)[C@H](NC(=O)OCc1ccccc1)C(=O)N[C@@H](CCC(=O)O)C(=O)N[C@H](C(=O)NN(CC(=O)O)C(=O)/C=C/C(=O)N(C)Cc1ccccc1)[C@@H](C)O` (relative stereo) [Cbz-Ile-Glu-Thr-AAsp-CH═CH—CON(CH3)CH2Ph, N^1-trans-(3-Benzylmethylcarbamoylpropenoyl)-N^2—(N-benzyloxycarbonylisoleucylglutamylthreonyl)-N^1-carboxylmethylhydrazine], the “k2 Caspase-3” value on Caspase-3 is 6,000 M^−1s^−1. Moreover, the “k2 Caspase-9” value at Caspase-9 was 845 M⁻¹ s⁻¹. Moreover, the “k2 Caspase-6” value at Caspase-6 is listed as 45,900 M^−1s^−1. Also, the “k2 Caspase-10” value on Caspase-10 is recorded as 8,500 M^−1s^−1. In addition, the “k2 Caspase-2” value at Caspase-2 was 95 M⁻¹ s⁻¹. For the same compound, on Caspase-7, the “k2 Caspase-7” value came to 390 M⁻¹ s⁻¹. In addition, the “k2 Caspase-8” value at Caspase-8 is reported as 59,700 M^−1s^−1.
With `CC[C@H](C)[C@H](NC(=O)OCc1ccccc1)C(=O)N[C@@H](CCC(=O)O)C(=O)N[C@H](C(=O)NN(CC(=O)O)C(=O)/C=C/C(=O)NCCc1ccccc1)[C@@H](C)O` (relative stereo) [Cbz-Ile-Glu-Thr-AAsp-CH═CH—CONHCH2CH2Ph, N^2—(N-BenzyloxycarbonylisoleucylglutamyIthreonyl)-N^1-carboxylmethyl-N^1-trans-(3-phenyethylcarbamoylpropenoyl)hydrazine], the “k2 Caspase-3” value on Caspase-3 is on record as 4,750 M^−1s^−1. In addition, on Caspase-9, the “k2 Caspase-9” value amounted to 615 M⁻¹ s⁻¹. The “k2 Caspase-6” value on Caspase-6 was 18,700 M^−1s^−1. For the same compound, the “k2 Caspase-10” value at Caspase-10 is listed as 8,290 M^−1s^−1. The “k2 Caspase-2” value on Caspase-2 was found to be 30 M⁻¹ s⁻¹. Moreover, the “k2 Caspase-7” value on Caspase-7 turned out to be 440 M⁻¹ s⁻¹. Moreover, the “k2 Caspase-8” value at Caspase-8 is reported as 71,000 M^−1s^−1.
`CC[C@H](C)[C@H](NC(=O)OCc1ccccc1)C(=O)N[C@@H](CCC(=O)O)C(=O)N[C@H](C(=O)NN(CC(=O)O)C(=O)/C=C/C(=O)NCc1ccccc1)[C@@H](C)O` (relative stereo) [Cbz-Ile-Glu-Thr-AAsp-CH═CH—CONHCH2Ph, N^1-trans-(3-Benzylcarbamoylpropenoyl)-N^2—(N-benzyloxycarbonylisoleucylglutamylthreonyl)-N^1-carboxylmethylhydrazine]: the “k2 Caspase-3” value on Caspase-3 is 2,250 M^−1s^−1. Besides, the “k2 Caspase-9” value on Caspase-9 is 440 M⁻¹ s⁻¹. Moreover, at Caspase-6, the “k2 Caspase-6” value is 16,800 M^−1s^−1. The “k2 Caspase-10” value on Caspase-10 stood at 503 M⁻¹ s⁻¹. Also, the “k2 Caspase-2” value at Caspase-2 was determined as 15 M⁻¹ s⁻¹. Moreover, the “k2 Caspase-7” value on Caspase-7 was 100 M⁻¹ s⁻¹. Moreover, the “k2 Caspase-8” value at Caspase-8 is 61,300 M^−1s^−1.
Regarding `CC[C@H](C)[C@H](NC(=O)OCc1ccccc1)C(=O)N[C@@H](CCC(=O)O)C(=O)N[C@H](C(=O)NN(CC(=O)O)C(=O)/C=C/C(=O)Nc1ccccc1)[C@@H](C)O` (relative stereo) [Cbz-Ile-Glu-Thr-AAsp-CH═CH—CONHPh, N^2—(N-Benzyloxycarbonylisoleucylglutamylthreonyl)-N^1-carboxylmethyl-N^1-trans-(3-phenylcarbamoylpropenoyl)hydrazine], at Caspase-3, the “k2 Caspase-3” value was 7,030 M^−1s^−1. Besides, the “k2 Caspase-9” value at Caspase-9 amounted to 940 M⁻¹ s⁻¹. Moreover, the “k2 Caspase-6” value on Caspase-6 is 99,200 M^−1s^−1. Also, the “k2 Caspase-10” value at Caspase-10 was 9,210 M^−1s^−1. In addition, the “k2 Caspase-2” value on Caspase-2 was found to be 365 M⁻¹ s⁻¹. Besides, the “k2 Caspase-7” value on Caspase-7 came out at 920 M⁻¹ s⁻¹. At Caspase-8, the “k2 Caspase-8” value is on record as 245,000 M^−1s^−1.
For `CC(C)C[C@H](NC(=O)OCc1ccccc1)C(=O)N[C@@H](CCC(=O)O)C(=O)N[C@H](C(=O)NN(CC(=O)O)C(=O)/C=C/C(=O)N(Cc1ccccc1)Cc1ccccc1)[C@@H](C)O` (relative stereo) [Cbz-Leu-Glu-Thr-AAsp-CH═CH—CON(CH2Ph)2, N^2—(N-Benzyloxycarbonylleucylglutamylthreonyl)-N^1-carboxylmethyl-N^1-trans-(3-dibenzylcarbamoylpropenoyl)hydrazine], at Caspase-3, the “k2 Caspase-3” value is recorded as 8,630 M^−1s^−1. Besides, at Caspase-9, the “k2 Caspase-9” value is 1,105 M^−1s^−1. The “k2 Caspase-6” value at Caspase-6 is 14,100 M^−1s^−1. Besides, the “k2 Caspase-10” value on Caspase-10 was 8,080 M^−1s^−1. The “k2 Caspase-2” value at Caspase-2 came to 110 M⁻¹ s⁻¹. In addition, on Caspase-7, the “k2 Caspase-7” value was determined as 760 M⁻¹ s⁻¹. The “k2 Caspase-8” value at Caspase-8 was 129,000 M^−1s^−1.
